This passage reports DC50, Dmax and IC50 results from patent US20260258039A1, “AROMATIC COMPOUND, METHOD FOR PREPARING SAME, AND USE THEREOF IN PREPARATION OF ESTROGEN RECEPTOR DEGRADER” (Hinova Pharmaceuticals Inc., priority 2022, published 2026).

One test addresses T1, ER (Homo sapiens, UniProt P03372).
T1 construct: T47D breast cancer cells were subcultured in cell culture medium; endogenous in cells; host or cells: T47D breast cancer cells
T1 sequence (P03372 1-595): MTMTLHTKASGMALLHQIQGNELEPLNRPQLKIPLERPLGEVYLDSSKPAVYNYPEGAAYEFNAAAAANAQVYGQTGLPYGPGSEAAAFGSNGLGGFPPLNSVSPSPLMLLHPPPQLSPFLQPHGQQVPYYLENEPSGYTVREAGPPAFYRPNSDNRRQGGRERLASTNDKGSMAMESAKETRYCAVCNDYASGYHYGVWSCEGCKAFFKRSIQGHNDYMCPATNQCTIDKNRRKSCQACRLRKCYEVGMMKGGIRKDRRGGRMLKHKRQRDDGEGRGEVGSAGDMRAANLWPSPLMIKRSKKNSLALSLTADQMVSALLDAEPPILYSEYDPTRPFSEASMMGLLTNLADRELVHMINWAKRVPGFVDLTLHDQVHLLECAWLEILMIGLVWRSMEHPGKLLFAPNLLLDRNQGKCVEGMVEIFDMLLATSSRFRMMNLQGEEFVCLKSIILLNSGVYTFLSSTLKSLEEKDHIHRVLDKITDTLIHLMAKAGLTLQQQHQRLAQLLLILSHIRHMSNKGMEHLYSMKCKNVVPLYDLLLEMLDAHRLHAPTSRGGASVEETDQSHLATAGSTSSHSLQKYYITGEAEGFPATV
Briefly: Degradation activities on ER (ELISA) in T47D breast cancer cells. Conditions: for DC50: concentration required to degrade 50% of the target protein. The test is classed as cell-based. As to the method: T47D breast cancer cells were subcultured in cell culture medium, and then the cells in good growth condition were seeded into 96-well plates at 80 µL/well, with 2.5×10^4 cells per well. The cells were incubated in a 37° C., 5% CO2 incubator for 3 days. The drug was prepared into a 10 mM stock solution with dimethyl sulfoxide (DMSO). Prior to use, the stock solution was diluted with cell culture medium to obtain six final concentrations (100 nM, 25 nM, 6.25 nM, 1.56 nM, 0.39 nM, and […]), and gently mixed. Additionally, negative control wells (only containing culture medium) and positive control wells (only containing cells and DMSO) were included. After the cells were incubated in the incubator for 24 h, the cells were rinsed once with ice-cold 1×PBS. […] The plate was sealed with plastic film, and incubated in a 37° C. incubator for 2 h. The film was removed. 200 μL of 1× washing buffer was added to each well, and then the plate was shaken for 5 min. The washing buffer was discarded, and the plate was pat-dried. The plate was washed four times. 100 μL of freshly prepared detection antibody (green) was added to each well of the ELISA plate. The plate was sealed with plastic film, and then incubated in a 37° C. incubator for 1 h. The film was removed, and the detection antibody was discarded. The plate was pat-dried. 200 μL of 1× washing buffer was added to each well, and then the plate was shaken for 5 min. The washing buffer was discarded, and the plate was pat-dried. The plate was washed four times. 100 μL of freshly prepared HRP-labeled secondary antibody (red) was added to each well of the ELISA plate. The plate was sealed with plastic film, and incubated in a 37° C. incubator for 30 min. The film was removed, the secondary antibody was discarded, and the plate was pat-dried, followed by adding 200 μL of 1× washing buffer to each well. The plate was shaken for 5 min, and the washing buffer was discarded before pat-drying the plate. The plate was washed four times. 100 μl of TMB substrate was added to each well of the ELISA plate, followed by incubating in a 37° C. incubator for 5 min. 100 μL of STOP solution was added to each well of the ELISA plate, and the plate was gently shaken for a few seconds. The bottom of each well was wiped with lint-free cloth. Within 30 min after adding the STOP solution, the absorbance was read at 450 nm. […] The data were analyzed using the Dose-response equation in GraphPad Prism8 software to obtain the DC50 and Dmax values, and both of them are important indicators for measuring the degradation activities of compounds on target proteins. […] The Dmax value represents the maximum percentage of target protein that can be degraded by the compound.
For orientation: ELISA stands for enzyme-linked immunosorbent assay.

In test [1] the test system is MCF-7 breast cancer cells. Briefly: Inhibition of proliferation of MCF-7 breast cancer cells (agarose culture, CellTiter-Glo 3D). The test is classed as cell-based. As to the method: After 1.6% agarose and 0.7% agarose were sterilized at high temperature, they were cooled to around 50° C., and placed in a 42° C. water bath for later use. MCF-7 breast cancer cells were subcultured in complete cell culture medium, and cells in good growth condition were digested and counted for future use. 50 µL of 1.6% agarose mixed with 2× culture medium at a ratio of 1:1 was spread into the bottom of 96-well plate, and allowed to cool and solidify. 0.7% agarose was mixed with diluted cell suspension in a ratio of 1:1, and then 50 µL of the mixture of gel and cells was added to each well, with 2000 cells for each well; the mixture was allowed to cool and solidify at room temperature. 50 μL of culture medium was added to the plate containing cells, and the plate was placed in a 37° C., 5% CO2 incubator and cultured for 24 h. The drug was prepared into 10 mM stock solution with dimethyl sulfoxide (DMSO). The stock solution was diluted in a ratio of 1:3, to obtain 9 concentration gradients. Then, each concentration of compound solution was further diluted with culture medium in 1:250 (to ensure a DMSO concentration of 0.1% in the culture system). Two replicate wells was set for each concentration. 50 μL of the diluted compound solution was added to the cell culture wells (with final concentrations of 10 μM, 3.3 μM, 1.1 μM, 0.37 μM . . . ). The plate was gently shaken for mixing. Additionally, 3 negative control wells only containing cells and 3 blank control wells only containing culture medium were set up (each of the 6 wells was added with 50 μL of DMSO diluted with culture medium in a ration of 1:250). After 15 days of cultivation, the cell plates and CellTiter-Glo 3D Cell Viability were taken out and equilibrated to room temperature in advance. 80 μL of culture medium were aspirated and discarded from the cell plate, and 120 µL of CellTiter-Glo 3D Cell Viability solution was added to each well. The plates were centrifuged at 1200 rpm/min for 5 min, and then placed in the dark and kept for 25 min. The […] were measured using a multi-function microplate reader. The data were analyzed using the Dose-response-inhibition equation in GraphPad Prism8 software, and the IC50 values were obtained, as shown in Table 3.

Where [2] appears, read: T47D cells, 24 h, ELISA, maximum percentage of target protein degraded, read-out: Dmax.
Where [3] appears, read: Homo sapiens, MCF7, 360 h, MCF-7 cells, 15 days of cultivation, read-out: IC50.
Setting [4] is: T47D cells, 24 h, ELISA, maximum percentage of target protein degraded.
Setting [5] is: MCF-7 cells, 15 days of cultivation, read-out: IC50.

Where two headings read alike, the source gives them in different places.

In the case of `O=C1CCC(N2Cc3cc(N4CC5(CCN(CC6CCN(c7ccc(C8=C(c9c(F)cccc9F)COc9cc(O)ccc98)cc7F)CC6)CC5)C4)ccc3C2=O)C(=O)N1` (stereo not shown) [Example 76, 3-(5-(7-((1-(4-(3-(2,6-difluorophenyl)-7-hydroxyl-2H-chromene-4-yl)-2-fluorophenyl)piperidin-4-yl)methyl)-2,7-diazaspiro[3.5]nonane-2-yl)-1-oxoisoinodolin-2-yl)piperidin-6-dione], the DC50 (as a rule, the midpoint of the concentration-degradation curve) at ER (T47D cells, 24 h, ELISA) is under 10 nM. Also, the Dmax – broadly, the largest share of the target that was removed – on ER (setting [2]) is over 75%. For the same compound, in test [1] (setting [3]), the IC50 (in general, the point on the concentration scale where inhibition reaches its midpoint) was under 10 nM.
In turn, `O=C1CCC(N2Cc3cc(N4CC5(CCN(CC6CCN(c7ccc([C@H]8c9ccc(O)cc9OC[C@H]8c8ccccc8F)cc7F)CC6)CC5)C4)ccc3C2=O)C(=O)N1` (relative stereo) [Example 87, 3-(5-(7-((1-(2-fluoro-4-(cis-3-(2-fluorophenyl)-7-hydroxybenzopyran-4-yl)phenyl)piperidin-4-yl)methyl)-2,7-diazaspiro[3.5]nonane-2-yl)-1-oxoisoinodolin-2-yl)piperidin-2,6-dione] displayed a DC50 on ER (T47D cells, 24 h, ELISA) of under 10 nM. The Dmax result on ER (setting [4]) is “B (B: 75-50%)”. In addition, the IC50 in test [1] (setting [5]) is under 10 nM.
The compound `O=C1CC[C@H](N2Cc3cc(N4CC5(CCN(CC6CCN(c7c(F)cc([C@@H]8c9ccc(O)cc9OC[C@@H]8c8c(F)cccc8F)cc7F)CC6)CC5)C4)ccc3C2=O)C(=O)N1` [Example 45] gave a DC50 at ER (T47D cells, 24 h, ELISA) of under 10 nM. Besides, on ER (setting [2]), the Dmax is over 75%. In addition, the IC50 in test [1] (setting [3]) was under 10 nM.
Turning to `[2H]C1(N2Cc3cc(N4CC5(CCN(CC6CCN(c7ccc([C@@H]8c9ccc(O)cc9OC[C@@H]8c8c(F)cccc8F)cc7F)CC6)CC5)C4)ccc3C2=O)CCC(=O)NC1=O` (stereo partly drawn) [Example 93, 3-deutero-3-(5-(7-((1-(4-((3S,4R)-3-(2,6-difluorophenyl)-7-hydroxychroman-4-yl)-2-fluorophenyl)piperidin-4-yl)methyl)-2,7-diazaspiro[3.5]nonane-2-yl)-1-oxoisoinodolin-2-yl)piperidin-2,6-dione], in test [1] (setting [3]), the IC50 lay within 11 to 50 nM.
The compound `O=C1CCC(N2Cc3cc(N4CC5(CCN(CC6CCN(c7ccc([C@@H]8c9ccc(O)cc9OC[C@@H]8c8cccc(F)c8)cc7)CC6)CC5)C4)ccc3C2=O)C(=O)N1` (stereo partly drawn) [Example 60, 3-(5-(7-((1-(4-((3,4-cis)-3-(3-fluorophenyl)-7-hydroxyl-chroman-4-yl)phenyl)piperidin-4-yl)methyl)-2,7-diazaspiro[3.5]nonane-2-yl)-1-oxoisoindol-2-yl)piperidin-2,6-dione] yielded a Dmax on ER (T47D) of 50 to 75%. This compound yielded a DC50 at ER (T47D cells, 24 h, ELISA) of under 10 nM. The compound further registered an IC50 in test [1] (Homo sapiens, MCF7, 360 h) of under 10 nM.
As to `O=C1CC[C@H](N2Cc3cc(N4CC5(CCN(CC6CCN(c7ccc([C@@H]8c9ccc(O)cc9OC[C@@H]8c8c(F)cccc8F)cc7)CC6)CC5)C4)ccc3C2=O)C(=O)N1` [Example 78, (S)-3-(6-(7-((1-(4-((3S,4R)-3-(2,6-difluorophenyl)-7-hydroxychroman-4-yl)phenyl)piperidin-4-yl)methyl)-2,7-diazaspiro[3.5]nonane-2-yl)-1-oxoisoinodolin-2-yl)piperidin-2,6-dione], the IC50 in test [1] (setting [3]) was under 10 nM.
Regarding `O=C1CCC(N2Cc3cc(N4CC5(CCN(CC6CCN(c7ccc(C8=C(c9c(F)cccc9F)COc9cc(O)ccc98)cc7)CC6)CC5)C4)ccc3C2=O)C(=O)N1` (stereo not shown) [Example 18, 3-(5-(7-((1-(4-(3-(2,6-difluorophenyl)-7-hydroxyl-2H-chromene-4-yl)phenyl)piperidin-4-yl)methyl)-2,7-diazaspiro[3.5]nonane-2-yl)-1-oxoisoinodolin-2-yl)piperidin-2,6-dione], the DC50 at ER (T47D cells, 24 h, ELISA) is under 10 nM. Also, the Dmax entry on ER (setting [4]) was “A (A: >75%)”. Besides, in test [1] (setting [5]), the IC50 was under 10 nM.
For the compound `O=C1CCC(N2Cc3cc(N4CC5(CCN(CC6CCN(c7ccc([C@@H]8c9ccc(C(=O)O)cc9OC[C@@H]8c8ccccc8F)cc7)CC6)CC5)C4)ccc3C2=O)C(=O)N1` (stereo partly drawn) [Example 102, cis-4-(4-(4-((2-(2-(2,6-dioxopiperidin-3-yl)-1-oxoisoinodolin-5-yl)-2,7-diazaspiro[3.5]nonan-7-yl)methyl)piperidin-1-yl)phenyl)-3-(2-fluorophenyl)chroman-7-formic acid], the IC50 in test [1] (setting [3]) was over 50 nM.
On ER (T47D cells, 24 h, ELISA), `O=C1CCC(N2Cc3cc(N4CC5(CCN(CC6CCN(c7c(F)cc([C@@H]8c9ccc(O)cc9OC[C@@H]8c8c(F)cccc8F)cc7F)CC6)CC5)C4)ccc3C2=O)C(=O)N1` (stereo partly shown) [Example 40] showed a DC50 of under 10 nM. In addition, the IC50 in test [1] (setting [3]) is under 10 nM.
Regarding `O=C1CCC(N2Cc3cc(N4CC5(CCN(CC6CCN(c7ccc([C@@H]8c9ccc(B(O)O)cc9OC[C@@H]8c8ccccc8F)cc7)CC6)CC5)C4)ccc3C2=O)C(=O)N1` (stereo partly drawn) [Example 101, (cis-4-(4-(4-((2-(2-(2,6-dioxopiperidin-3-yl)-1-oxoisoinodolin-5-yl)-2,7-diazaspiro[3.5]nonan-7-yl)methyl)piperidin-1-yl)phenyl)-3-(2-fluorophenyl)pyran-7-yl)boric acid], the IC50 in test [1] (setting [3]) was in the range of 11 to 50 nM.
For the compound `O=C1CCC(NC(=O)c2ccc(N3CC4(CCN(CC5CCN(c6ccc([C@@H]7c8ccc(O)cc8OC[C@@H]7c7ccccc7F)cc6)CC5)CC4)C3)cc2F)C(=O)N1` (relative stereo) [Example 103, N-(2,6-dioxopiperidin-3-yl)-2-fluoro-4-(7-((1-(4-(cis-3-(2-fluorophenyl)-7-hydroxychroman-4-yl)phenyl)piperidin-4-yl)methyl)-2,7-diazaspiro[3.5]nonane-2-yl)benzamide], the IC50 in test [1] (setting [3]) was over 50 nM.
